What was measured:
[1] = CC50 assay (CellTiter-Glo) in Huh-7 HCV replicon cells; type: cell-based; details: human
Experimental: (§1) The anti-HCV activity of the pyrido[3,2-d]pyrimidine derivatives of this invention was tested in a human hepatoma Huh-7 cell line harboring a HCV replicon. The assay comprised the following steps: • Step 1: compound preparation and serial dilution: serial dilution is performed in 50% DMSO in a 384-well plate. A solution containing a compound at 100-fold concentration of the starting final serial dilution concentration was prepared in 50% DMSO and added to the pre-specified wells in column 1 of a polypropylene 384-well plate. The plate was then placed on a Precision 2000 Workstation to start the serial dilution. After the serial dilution, a volume of 2 μL of the solution was transferred from the 384-well plate to a 96-well cell culture plate containing 100 μL of cell media on a Biomek FX Workstation. The DMSO concentration in the final assay condition was 0.5% after cells are added to the plate and the total volume in each well is brought to 200 μL. • Step 2: to each well of the serial dilution plate prepared above, 100 μL of cell media containing 6000 suspended Huh-7 HCV replicon cells was added with a Multidrop workstation. The plates were incubated for 3 days at 37° C. with 5% CO2. • Step 3: detection: • a) for the EC50 assay, the media in a 96-well cell culture plate was aspirated with a Biotek EL405 plate-washer. A volume of 200 μL of a solution containing a 1:1 mixture of cell-lysis buffer (Promega, Luciferase Cell Culture Lysis 5× Reagent, cat. #E1531) and luciferase substrate solution (Promega, Luciferase Assay, cat.# E4550) was added to each well of the plate with Multidrop. The plate was incubated for 30 minutes at room temperature before the luminescence signal was measured with a TopCount plate-reader. • b) for the CC50 assay, a volume of 100 μL of pre-mixed CellTiter-Glo (Promega, cat.# G7572) solution is added directly to the cell culture in each well of the plate and the luminescence signal is measured with a TopCount plate-reader after 10 minutes of incubation at room temperature.

[2] = test system: HCV replicon in human hepatoma Huh-7 cell line; experiment: Anti-HCV replicon assay, EC50 (luciferase luminescence); type: cell-based; details: Hepatitis C virus, Huh-7, 72 h
Experimental: as §1

## C#Cc1ccc2nc(NCc3ccc(S(N)(=O)=O)cc3)nc(N[C@@H](C)C(F)(F)F)c2n1 [Example 289, (S)-4-((6-ethynyl-4-(1,1,1-trifluoropropan-2-ylamino)pyrido[3,2-d]pyrimidin-2-ylamino)methyl)benzene-sulfonamide]
[1]; Table 2, 3 days incubation
  CC50 at 3 days: 1 to 10 µM
[2]
  EC50: < 0.1 µM

## c1ncn(-c2ccc(CNc3nc(OC4CC4)c4nc(-c5ccc(OC6CCC6)nc5)ccc4n3)cc2)n1 [Example 251, N-(4-(1H-1,2,4-triazol-1-yl)benzyl)-6-(6-cyclobutoxy-pyridin-3-yl)-4-cyclopropoxy-pyrido[3,2-d]pyrimidin-2-amine]
[1]; Table 2, 3 days incubation
  CC50 at 3 days: 1 to 10 µM
[2]
  EC50: 0.1 to 0.25 µM

## CS(=O)(=O)c1cccc(-c2ccc3nc(NCCS(N)(=O)=O)nc(NCC(F)(F)F)c3n2)c1 [Example 137, 2-(6-(3-(methylsulfonyl)phenyl)-4-(2,2,2-trifluoroethylamino)pyrido [3,2-d]pyrimidin-2-ylamino)ethanesulfonamide]
[1]; Table 2, 3 days incubation
  CC50 at 3 days: > 10 µM
[2]
  EC50: 0.1 to 0.25 µM

## C#Cc1ccc2nc(N[C@H](C)c3ccc(S(N)(=O)=O)cc3)nc(OC3CC3)c2n1 [Example 294, (R)-4-(1-(4-cyclopropoxy-6-ethynylpyrido[3,2-d]pyrimidin-2-ylamino)ethyl)benzene-sulfonamide]
[1]; Table 2, 3 days incubation
  CC50 at 3 days: 1 to 10 µM
[2]
  EC50: < 0.1 µM

## CCS(=O)(=O)c1cccc(-c2ccc3nc(N[C@H](C)c4ccc(-n5cncn5)cc4)nc(NCC(F)(F)F)c3n2)c1 [Example 182, N^2-((R)-1-(4-(1H-1,2,4-triazol-1-yl)phenyl)ethyl)-6-(3-(ethylsulfonyl)phenyl)-N^4-(2,2,2-trifluoroethyl)pyrido [3,2-d]pyrimidine-2,4-diamine]
[1]; Table 2, 3 days incubation
  CC50 at 3 days: 1 to 10 µM
[2]
  EC50: < 0.1 µM

## C[C@H](Nc1nc(NCc2ccc(-n3cncn3)cc2)nc2ccc(C#CC3CC3)nc12)C(F)(F)F [Example 292, (S)-N^2-(4-(1H-1,2,4-triazol-1-yl)benzyl)-6-(2-cyclopropyl-ethynyl)-N^4-(1,1,1-trifluoro-propan-2-yl)pyrido[3,2-d] pyrimidine-2,4-diamine]
[1]; Table 2, 3 days incubation
  CC50 at 3 days: > 10 µM
[2]
  EC50: 0.25 to 2 µM

## N#Cc1cc(CNc2nc(NC3(C(F)(F)F)CC3)c3nc(-c4ccc(F)cc4)ccc3n2)cc(S(N)(=O)=O)c1 [Example 49, 3-cyano-5-((6-(4-fluorophenyl)-4-(1-(trifluoromethyl)cyclopropyl-amino)pyrido[3,2-d]pyrimidin-2-ylamino)methyl)benzene-sulfonamide]
[1]; Table 2, 3 days incubation
  CC50 at 3 days: > 10 µM
[2]
  EC50: < 0.1 µM

## Fc1ccc(-c2ccc3nc(NCc4ccc(-n5cncn5)cc4)nc(NC4(C(F)(F)F)CC4)c3n2)cc1 [Example 81, N^2-(4-(1H-1,2,4-triazol-1-yl)benzyl)-6-(4-fluorophenyl)-N^4-(1-(trifluoromethyl)cyclopropyl)pyrido[3,2-d] pyrimidine-2,4-diamine]
[1]; Table 2, 3 days incubation
  CC50 at 3 days: 1 to 10 µM
[2]
  EC50: 0.25 to 2 µM

## NS(=O)(=O)c1ccc(CNc2nc(NCC(F)(F)F)c3nc(-c4ccc(OC(F)F)nc4)ccc3n2)cc1 [Example 244, 4-((6-(6-(difluoromethoxy)pyridin-3-yl)-4-(2,2,2-trifluoroethylamino)pyrido [3,2-d]pyrimidin-2-ylamino)methyl)benzene-sulfonamide]
[1]; Table 2, 3 days incubation
  CC50 at 3 days: > 10 µM
[2]
  EC50: 0.1 to 0.25 µM

## NS(=O)(=O)c1cc(Cl)cc(CNc2nc(NC3(C(F)(F)F)CC3)c3nc(C#CC4CC4)ccc3n2)c1 [Example 91, 3-chloro-5-((6-(2-cyclopropylethynyl)-4-(1-(trifluoromethyl)cyclopropyl-amino)pyrido[3,2-d]pyrimidin-2-ylamino)methyl)benzene-sulfonamide]
[1]; Table 2, 3 days incubation
  CC50 at 3 days: > 10 µM
[2]
  EC50: < 0.1 µM

## CS(=O)(=O)c1cccc(-c2ccc3nc(NCc4ccc(S(N)(=O)=O)cc4)nc(OC4CC4)c3n2)c1 [Example 22, 4-{[4-Cyclopropoxy-6-(3-methanesulfonyl-phenyl)-pyrido[3,2-d]pyrimidin-2-ylamino]-methyl}-benzenesulfonamide]
[1]; Table 1, 3 days incubation
  CC50 at 3 days: > 25 µM
[2]
  EC50: < 0.1 µM
